Test results as given in paper PMC12713704, “Crystal structure of fatty acid thioesterase A bound by 129 fragments provides diverse development opportunities” (Pest Management Science, 2025).
Where “and” joins values, the source holds several entries; their conditions need not be identical. Equal entries are not always repeated. Where two headings read alike, the source gives them in different places.

Key:
FatA (AtFatA) [1] = target: T1, FatA (AtFatA) (Arabidopsis thaliana, UniProt Q42561); test: biochemical; parameters: SPR (Biacore 8K), His-captured FatA; steady-state affinity KD and kinetic fit (1:1 model); details: steady-state affinity fit
T1 construct: residues 1-74 (chloroplast transit peptide) removed; noncleavable C-terminal His6 tag; codon-optimised gene in pET-24a(+), E. coli BL21(DE3); dimer by native mass spectrometry
T1 sequence (Q42561 75-362): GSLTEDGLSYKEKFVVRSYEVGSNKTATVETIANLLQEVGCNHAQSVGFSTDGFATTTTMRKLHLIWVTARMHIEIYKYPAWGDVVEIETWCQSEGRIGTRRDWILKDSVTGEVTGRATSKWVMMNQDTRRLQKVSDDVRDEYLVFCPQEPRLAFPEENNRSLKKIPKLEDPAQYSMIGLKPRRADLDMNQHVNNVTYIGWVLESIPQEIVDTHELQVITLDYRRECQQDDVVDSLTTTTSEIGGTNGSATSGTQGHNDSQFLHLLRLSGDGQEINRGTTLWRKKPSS
Description: FatA was immobilized on an NTA sensor chip (GE Healthcare, Chicago, IL, USA) using a Biacore 8K, captured via His‐tag and simultaneous amine coupling on EDC/NHS‐activated carboxyl groups (Immobilization buffer: 25 mM HEPES pH 7.4, 150 mM NaCl, 1 mM TCEP, 0.05% Tween 20). Equilibrium binding experiments were performed at 20 °C using a Biacore 8K instrument (GE Healthcare) with 25 mM HEPES pH 7.4, 150 mM NaCl, 1 mM TCEP, 0.05% Tween 20 and 2% DMSO as running buffer for compound testing. Compounds were injected over the chip in two‐fold dilution series either in multi‐cycle mode (60s/180s association/dissociation time) or single‐cycle kinetic mode (160 s/1800s association/dissociation time). Indicative K D values were obtained by steady‐state affinity fitting to a 1:1 binding site model.

FatA (AtFatA) [2] = target: T1, FatA (AtFatA); test: fluorescent CPM detection of CoA released from oleoyl-CoA; format: biochemical
FatA (AtFatA) [3] = target: T1, FatA (AtFatA); test: biochemical; parameters: SPR (Biacore 8K, immobilized His-tagged FatA), steady-state affinity and 1:1 kinetic fits, 20 °C; details: for kon: read-out: ka (1/Ms), kinetic fit; for koff: read-out: kd (1/s), kinetic fit; for ka / kd: kinetic fit; for ka: ka (1/Ms); for kd: kd (1/s)
Excerpt: The analogues were used to explore the binding capabilities of the herbicide pocket as well as tolerance to heterocyclic ring size. […] The resulting 60 compounds were either purchased from Enamine REAL or synthesized in‐house. […] Chemical structures of all x1816 analogues tested are available in Data S1. Binding data can be found in Data S2.

FatA (AtFatA) [4] = target: T1, FatA (AtFatA); test: SPR, steady-state […] fit, His-captured and amine-coupled FatA; format: binding
FatA (AtFatA) [5] = target: T1, FatA (AtFatA); test: X-ray crystal structure, fragment soak; details: crystal soak […], […] DMSO, pH […]; herbicide binding site

Row | Kd (FatA (AtFatA) [3]) [µM] | kon (FatA (AtFatA) [3]) [M⁻¹ s⁻¹] | koff (FatA (AtFatA) [3]) [s⁻¹] | Compound | other results
1 | – | – | – | CC(=O)N1CC(C)(C)c2ccccc21 [x1816-FU57] | Kd (FatA (AtFatA) [1]): > 100 µM
2 | – | – | – | O=C(Nc1ccccc1)N1CCCCCC1 [x1944*] | IC50 (FatA (AtFatA) [2]): 43.9 µM
3 | – | – | – | NS(=O)(=O)c1nc2ccccc2[nH]1 [x1168/x1231] | IC50 (FatA (AtFatA) [2]; […] oleoyl-CoA, […] FatA, pH […], room temperature, active site (also dimer site), unreliable): > 250 µM
4 | 1.63 | 13600 | 0.0222 | CC(C)C(=O)N1c2ccccc2CCC1C (stereo not shown) [x1816-FU6] | –
5 | – | – | – | CC(=O)N1CCSc2ccccc2C1 [x1816-FU1_repeat] | ka (FatA (AtFatA) [3]): 367000 M⁻¹ s⁻¹ and 305000 M⁻¹ s⁻¹; kd (FatA (AtFatA) [3]): 0.0326 s⁻¹ and 0.0293 s⁻¹
6 | – | – | – | CC(=O)N1CCN(C)c2ncccc21 [x1816-FU56] | Kd (FatA (AtFatA) [1]): > 100 µM
7 | – | – | – | CCC1CCc2ccccc2N1C(C)=O (stereo not shown) [x1816-FU43] | Kd (FatA (AtFatA) [1]): 68.1 µM
8 | – | – | – | CC(=O)N1CCCc2ncccc21 [x1816-FU60] | Kd (FatA (AtFatA) [1]): > 100 µM
9 | – | – | – | CCCC(=O)N1c2ccccc2CCC1C (stereo not shown) [x1816-FU4_repeat] | ka (FatA (AtFatA) [3]): 12300 M⁻¹ s⁻¹ and 10600 M⁻¹ s⁻¹; kd (FatA (AtFatA) [3]): 0.0147 s⁻¹ and 0.0135 s⁻¹
10 | – | – | – | CC(=O)N1c2ccccc2C(C)(C)CC1C (stereo not shown) [x1816-FU58] | Kd (FatA (AtFatA) [1]): > 100 µM
11 | – | – | – | CC(=O)N1CCCc2cccnc21 [x1816-FU59] | Kd (FatA (AtFatA) [1]): > 100 µM
12 | 2.47 | 13900 | 0.0343 | CCC(=O)N1c2ccccc2CCC1C (stereo not shown) [x1816-FU8] | –
13 | 1.55 | 45000 | 0.0695 | CC(=O)N1c2ccccc2OCC1C (stereo not shown) [x1816-FU5] | –
14 | 1.96 | 4150 | 0.00811 | CCC(C)C(=O)N1c2ccccc2CCC1C (stereo not shown) [x1816-FU7] | –
15 | – | – | – | CC(=O)N1CCC(C)c2ccccc21 (stereo not shown) [x1816-FU45] | Kd (FatA (AtFatA) [1]): 93.8 µM
16 | – | – | – | CNC1CCN(c2ccccc2F)C1=O (stereo not shown) [x1573] | IC50 (FatA (AtFatA) [2]): 29 µM
17 | 19.9 | 3010 | 0.06 | CC1CCc2ccccc2N1C(=O)CC(C)(C)C (stereo not shown) [x1816-FU14] | –

Row | Kd (FatA (AtFatA) [3]) [µM] | kon (FatA (AtFatA) [3]) [M⁻¹ s⁻¹] | koff (FatA (AtFatA) [3]) [s⁻¹] | Compound | other results
18 | – | – | – | Nc1ccc2oc(=O)ccc2c1 [x1463] | IC50 (FatA (AtFatA) [2]): 142 µM
19 | 4.42 | 20000 | 0.0885 | COCC(=O)N1c2ccccc2CCC1C (stereo not shown) [x1816-FU12] | –
20 | 0.0741 | 463000 | 0.0343 | CC(=O)N1CCSc2ccccc2C1 [x1816-FU1] | Kd (FatA (AtFatA) [4]): ~0.09 µM
21 | – | – | – | Nc1cc(F)ccc1C(=O)O [x1290] | X-ray crystal structure, fragment soak (FatA (AtFatA) [5]): x1290 and x1437 which share a similar chemical motif and are both bound
22 | – | – | – | CCC(=O)N1CCCc2ccccc2C1 [x1816-FU2_repeat] | ka (FatA (AtFatA) [3]): 163000 M⁻¹ s⁻¹ and 124000 M⁻¹ s⁻¹; kd (FatA (AtFatA) [3]): 0.0811 s⁻¹ and 0.0645 s⁻¹
23 | 8.7 | 8080 | 0.0703 | CC(C)CC(=O)N1c2ccccc2CCC1C (stereo not shown) [x1816-FU13] | –
24 | 0.156 | – | 0.0502 | CCC(=O)N1CCCc2ccccc2C1 [x1816-FU2] | ka (FatA (AtFatA) [3]): 321361.600232 M⁻¹ s⁻¹
25 | – | – | – | CC1CCc2ccccc2N1C(=O)NC(C)(C)C (stereo not shown) [x1816-FU44] | Kd (FatA (AtFatA) [1]): 91.5 µM
26 | 3.1 | 50900 | 0.158 | CC(=O)N1CCCc2cccc(F)c21 [x1816-FU10] | –
27 | – | – | – | O=C(O)c1sccc1-n1cccc1 [x1425] | IC50 (FatA (AtFatA) [2]): > 250 µM
28 | 3.13 | 8170 | 0.0256 | CC(=O)N1CC(C)(CO)Cc2ccccc21 (stereo not shown) [x1816-FU11] | –
29 | – | – | – | COCC(=O)N1CC(C)(C)c2ccccc21 [x1816-FU42] | Kd (FatA (AtFatA) [1]): 57.7 µM
30 | 3.06 | 59600 | 0.182 | CC(=O)N1CCCc2c(Cl)ccc(F)c21 [x1816-FU9] | –
31 | 1.16 | 10100 | 0.0117 | CCCC(=O)N1c2ccccc2CCC1C (stereo not shown) [x1816-FU4] | –
32 | – | – | – | CNCC1COc2ccccc2O1 (stereo not shown) [x2004] | IC50 (FatA (AtFatA) [2]): 25.6 µM
33 | – | – | – | CC(=O)N1c2ccccc2C(C)CC1(C)C (stereo not shown) [x1816-FU54] | Kd (FatA (AtFatA) [1]): > 100 µM
34 | – | – | – | Cc1cccc(C(=O)O)c1N [x1437] | X-ray crystal structure, fragment soak (FatA (AtFatA) [5]): x1290 and x1437 which share a similar chemical motif and are both bound
